Measurements taken from patent publication US20250144067A1, “PERSONALIZED STARVATION THERAPY FOR CANCER” (Faeth Therapeutics, Inc., priority 2021, published 2025).
Counter-ions that a name gives are not always drawn.

What was measured:
[1] = tested on: NCI-H292 lung cancer cells; experiment: FDA drug screening, complete media vs cholesterol-free media without statin (TABLE 1); assay type: cell-based, human; settings: for Difference: Complete minus Cholesterol-free
[2] = tested on: NCI-H292 lung cancer cells; experiment: FDA drug screening, complete media vs cholesterol-free media with simvastatin (TABLE 2); assay type: cell-based, human; settings: for Cholesterol-free media + simvastatin (0.04 μM) / Complete Media: NCI-H292 cells
[3] = greater than 0 enhanced anti-cancer activity, about 0 neutral, below 0 antagonists
[4] = NCI-H292 cells in cholesterol-free media without statin
[5] = NCI-H292 cells in complete media
[6] = FDA library drug in cholesterol-free media with simvastatin 0.04 μM
[7] = FDA library drug in complete media
[8] = complete media vs cholesterol-free media + simvastatin (0.04 μM), >0 enhanced anti-cancer activity, about 0 neutral, <0 antagonist
[9] = >0 enhanced anti-cancer activity, about 0 neutral, <0 antagonist
[10] = NCI-H292 cells, cholesterol-free media without statin, FDA drug library screen
[11] = NCI-H292 cells, complete media, FDA drug library screen
[12] = cholesterol-free media with simvastatin 0.04 μM, FDA drug library screen (TABLE 2)
[13] = complete media, FDA drug library screen (TABLE 2)
[14] = complete media minus cholesterol-free media + simvastatin (0.04 μM), >0 enhanced anti-cancer activity, about 0 neutral, <0 antagonist
[15] = NCI-H292 cells, cholesterol-free media without statin
[16] = FDA drug library screen, cholesterol-free media with simvastatin 0.04 μM
[17] = FDA drug library screen, complete media
[18] = greater than 0 enhanced anti-cancer activity, about 0 neutral, below 0 antagonist
[19] = NCI-H292 cells, FDA drug library screen, cholesterol-free media without statin
[20] = NCI-H292 cells, FDA drug library screen, complete media
[21] = cholesterol-free media with simvastatin 0.04 μM, cell growth value in FDA drug screen
[22] = complete media, cell growth value in FDA drug screen
[23] = complete media minus cholesterol-free media + simvastatin, >0 enhanced anti-cancer activity, about 0 neutral, <0 antagonist
[24] = complete media vs cholesterol-free media + simvastatin (0.04 μM), […]

C=C1c2cccc(O)c2C(=O)C2=C(O)[C@]3(O)C(=O)C(C(N)=O)=C(O)[C@@H](N(C)C)[C@@H]3[C@@H](O)[C@H]12 [Methacycline (hydrochloride)]
Difference [1, 3]: −0.57 | Cholesterol-free [1, 4]: 1.479 | Complete [1, 5]: 0.9047 | Cholesterol-free media + simvastatin (0.04 μM) [2, 6]: 1.315 | Complete Media [2, 7]: 0.995 | Difference [2, 8]: −0.32

CC(=O)/N=c1/sc(S(N)(=O)=O)nn1C [Methazolamide]
Difference [1, 3]: −0.57 | Cholesterol-free [1, 4]: 1.478 | Complete [1, 5]: 0.9069 | Cholesterol-free media + simvastatin (0.04 μM) ([2]; drug in cholesterol-free media with simvastatin 0.04 μM): 1.441 | Complete Media ([2]; drug in complete media): 1.241 | Difference [2, 8]: −0.20

C1N2CN3CN1CN(C2)C3.O=C(O)CNC(=O)c1ccccc1 [Methenamine (hippurate)]
Difference [1, 9]: 0.05 | Cholesterol-free [1, 10]: 0.09528 | Complete [1, 11]: 0.1431 | Cholesterol-free media + simvastatin (0.04 μM) [2, 12]: 0.3855 | Complete Media [2, 13]: 0.3286 | Difference [2, 14]: −0.06

COc1cccc(OC)c1C(=O)N[C@@H]1C(=O)N2[C@@H]1SC(C)(C)[C@@H]2C(=O)O [Methicillin (sodium salt)]
Difference [1, 9]: −0.06 | Cholesterol-free [1, 10]: 1.114 | Complete [1, 11]: 1.051 | Cholesterol-free media + simvastatin (0.04 μM) [2, 6]: 1.829 | Complete Media [2, 7]: 1.406 | Difference [2, 8]: −0.42

Cn1cc[nH]c1=S [Methimazole]
Difference [1, 9]: −0.20 | Cholesterol-free [1, 15]: 1.024 | Complete ([1]; NCI-H292 cells, complete media): 0.8245 | Cholesterol-free media + simvastatin (0.04 μM) [2, 16]: 1.144 | Complete Media [2, 17]: 1.001 | Difference [2, 8]: −0.14

COc1ccccc1OCC(O)COC(N)=O (stereo not drawn) [Methocarbamol]
Difference [1, 9]: −0.29 | Cholesterol-free [1, 15]: 1.357 | Complete ([1]; NCI-H292 cells, complete media): 1.063 | Cholesterol-free media + simvastatin (0.04 μM) [2, 6]: 1.33 | Complete Media [2, 7]: 0.8727 | Difference [2, 8]: −0.46

CN(Cc1cnc2nc(N)nc(N)c2n1)c1ccc(C(=O)N[C@@H](CCC(=O)[O-])C(=O)[O-])cc1.[Na+].[Na+] [Methotrexate (disodium)]
Difference [1, 9]: −0.05 | Cholesterol-free [1, 10]: 0.06701 | Complete [1, 11]: 0.01682 | Cholesterol-free media + simvastatin (0.04 μM) [2, 12]: 0.2727 | Complete Media [2, 13]: 0.2318 | Difference [2, 14]: −0.04

CN(Cc1cnc2nc(N)nc(N)c2n1)c1ccc(C(=O)N[C@@H](CCC(=O)O)C(=O)O)cc1 [Methotrexate]
Difference [1, 18]: −0.13 | Cholesterol-free [1, 19]: 0.225 | Complete [1, 20]: 0.09944 | Cholesterol-free media + simvastatin (0.04 μM) [2, 12]: 0.1275 | Complete Media [2, 13]: 0.1078 | Difference [2, 14]: −0.02

COc1c2occc2cc2ccc(=O)oc12 [Methoxsalen]
Difference [1, 3]: −0.72 | Cholesterol-free [1, 4]: 1.514 | Complete [1, 5]: 0.7902 | Cholesterol-free media + simvastatin (0.04 μM) [2, 6]: 1.34 | Complete Media [2, 7]: 0.9575 | Difference [2, 8]: −0.38

CN1C(CCl)Nc2cc(Cl)c(S(N)(=O)=O)cc2S1(=O)=O (stereo not drawn) [Methyclothiazide]
Difference [1, 9]: −0.24 | Cholesterol-free [1, 15]: 1.096 | Complete ([1]; NCI-H292 cells, complete media): 0.856 | Cholesterol-free media + simvastatin (0.04 μM) [2, 12]: 1.147 | Complete Media [2, 13]: 1.081 | Difference [2, 14]: −0.07

COC(=O)c1ccccc1O [Methyl Salicylate]
Difference [1, 9]: −0.24 | Cholesterol-free [1, 15]: 0.9648 | Complete ([1]; NCI-H292 cells, complete media): 0.722 | Cholesterol-free media + simvastatin (0.04 μM) [2, 21]: 0.8236 | Complete Media [2, 22]: 0.8959 | Difference [2, 23]: 0.07

COC(=O)CCC(=O)CN [Methyl aminolevulinate (hydrochloride)]
Difference [1, 3]: −0.59 | Cholesterol-free [1, 4]: 1.473 | Complete [1, 5]: 0.886 | Cholesterol-free media + simvastatin (0.04 μM) [2, 16]: 1.272 | Complete Media [2, 17]: 1.627 | Difference [2, 23]: 0.35

CC[N+](C)(CC)CCOC(=O)C(O)(c1ccccc1)c1ccccc1 [Methylbenactyzium Bromide]
Difference ([1]; […]): 0.02 | Cholesterol-free [1, 10]: 0.9201 | Complete [1, 11]: 0.945 | Cholesterol-free media + simvastatin (0.04 μM) [2, 6]: 1.651 | Complete Media [2, 7]: 1.081 | Difference [2, 24]: −0.57

C/C1=C2/[N-][C@H]([C@H](CC(N)=O)[C@@]2(C)CCC(=O)NC[C@@H](C)OP(=O)([O-])O[C@H]2[C@@H](O)[C@@H](n3cnc4cc(C)c(C)cc43)O[C@@H]2CO)[C@]2(C)N=C(/C(C)=C3N=C(/C=C4N=C1[C@@H](CCC(N)=O)C\4(C)C)[C@@H](CCC(N)=O)[C@]\3(C)CC(N)=O)[C@@H](CCC(N)=O)[C@]2(C)CC(N)=O.[CH3-].[Co+3] [Methylcobalamin]
Difference ([1]; […]): −0.18 | Cholesterol-free [1, 19]: 1.021 | Complete [1, 20]: 0.8435 | Cholesterol-free media + simvastatin (0.04 μM) [2, 6]: 1.749 | Complete Media [2, 7]: 0.8589 | Difference [2, 24]: −0.89

CN(C)c1ccc2nc3ccc(=[N+](C)C)cc-3sc2c1 [Methylene blue (trihydrate)]
Difference [1, 18]: −0.18 | Cholesterol-free [1, 19]: 0.4339 | Complete [1, 20]: 0.2574 | Cholesterol-free media + simvastatin (0.04 μM) [2, 21]: 0.3366 | Complete Media [2, 22]: 0.39 | Difference [2, 23]: 0.05
